Assay results: patent publication US10869940B2, “Targeted photoacoustic compounds, formulations, and uses thereof” (The Board of Trustees of the Leland Stanford Junior …, priority 2015, dated 2020)

Biological target: T1, PSMA expressing PC3 PiP cells (Homo sapiens, UniProt Q04609)
T1 construct: expressed in transfected cells; host or cells: PC3 PIP cells
Assay: Binding of the PSMA targeting photoacoustic compound to PSMA-expressing PC3 PIP cells

T1 sequence (Q04609 whole entry): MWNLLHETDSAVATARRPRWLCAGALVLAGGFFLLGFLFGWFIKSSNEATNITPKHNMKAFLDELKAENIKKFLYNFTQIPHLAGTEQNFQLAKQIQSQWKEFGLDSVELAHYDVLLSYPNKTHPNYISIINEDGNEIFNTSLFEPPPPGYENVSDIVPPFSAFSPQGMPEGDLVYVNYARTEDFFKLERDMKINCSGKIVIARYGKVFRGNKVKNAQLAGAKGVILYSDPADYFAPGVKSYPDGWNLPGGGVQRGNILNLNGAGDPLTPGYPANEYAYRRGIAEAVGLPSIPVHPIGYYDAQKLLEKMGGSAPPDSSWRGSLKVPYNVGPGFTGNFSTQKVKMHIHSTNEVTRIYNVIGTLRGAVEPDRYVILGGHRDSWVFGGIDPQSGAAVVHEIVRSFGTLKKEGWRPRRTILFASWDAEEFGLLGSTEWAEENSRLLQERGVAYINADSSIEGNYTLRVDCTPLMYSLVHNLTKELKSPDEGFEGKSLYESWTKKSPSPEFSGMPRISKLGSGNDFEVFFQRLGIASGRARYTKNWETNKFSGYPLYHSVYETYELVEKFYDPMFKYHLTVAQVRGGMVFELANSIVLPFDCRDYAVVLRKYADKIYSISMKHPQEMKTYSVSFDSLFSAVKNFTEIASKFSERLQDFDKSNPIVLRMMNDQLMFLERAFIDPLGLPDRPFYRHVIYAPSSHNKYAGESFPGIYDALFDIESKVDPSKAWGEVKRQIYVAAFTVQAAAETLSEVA

`O=C(O)CCC(CP(=O)(O)O)C(=O)O` (stereo not shown) [2-PMPA, 2-(phosphonomethyl)pentane-1,5 dioic acid] was tested. Which “blocking of binding to PC3 PIP cells by co-incubation with 2-PMPA” value did it give?
The value was “efficiently blocked”.
